Test results taken from patent publication US12521396B2, “Pharmaceutical compositions comprising a MENIN inhibitor” (Kura Oncology, Inc., priority 2023, dated 2026).

Columns and labels:
[1] = Excipient compatibility and formulation stability studies; assay type: physicochemical; details: excipient compatibility studies for tablet formulations
Source text: Compound 1 drug substance may have a low bulk density, small particle size, and needle-like morphology, all leading to poor flowability. Dry granulation using roller compaction was improved the powder flow and bulk density characteristics to enable capsule-filling. In addition, while glidants such as talc and colloidal silicon dioxide were not effective in improving powder flow and bulk density characteristics, mannitol and microcrystalline cellulose fillers improved the blend flow in the roller compactor.
In particular, these studies indicated less risk of instability in the presence of lactose as a diluent compared to mannitol.

[2] = Solid form stability on standing after recrystallization from MEK/IPA; assay type: physicochemical; details: recrystallized from MEK/IPA at 40° C., filtered at 25° C.
Method: Preparation A: Amorphous Compound 1 (prepared as described in U.S. Pat. No. 10,781,218, which is herein incorporated by reference in its entirety) was dissolved in 1:1 MEK/IPA v/v (4.5 mL/g) at ˜50-65° C. under N2. The solution was cooled to 33-37° C. Seed crystals were added (0.8-1.2 wt % relative to Compound 1) and the mixture was stirred for 4-6 h at 33-37° C. The mixture was cooled to 23-27° C. over 3-4 hours and stirred for 16-24 hours. Isopropanol (8.6-9.1 mL/g Compound 1) was added at 23-27° C. over 9-11 hours and then the mixture was stirred for 5-6 hours. The mixture was cooled to 3-8° C. over 4-6 hours and stirred for at least 24 hours. The resulting solid precipitate was collected at 5° C. The filter cake was rinsed with IPA (1.8-2.1 mL/g Compound 1) at 3-8° C. and dried under vacuum at 45-55° C. for 24-32 hours. XRPD analysis confirmed the isolated material as crystalline Compound 1, Form 1. Purity of 99.5% by HPLC and total residual solvents was about 0.4% wt by ^1H NMR. Recrystallization of Compound 1, Form 1, in MEK/IPA (6 v/12 v) by dissolving in MEK and adding IPA in portions at 25° C., stirring the suspension after addition of each IPA portion, cooling to 5° C., and stirring at 5° C. for 20 h produced a wet cake that was a mixture of two crystalline forms (Form 2 and Form 5) that were not Form 1. […]

Solid form stability upon standing [2]	Compound	Stability of Compound 1 with excipients [1]
	CNc1nc(NC2CCN(Cc3ccc4c(cc(C#N)n4C[C@H](C)N4CCN(S(C)(=O)=O)CC4)c3C)CC2)c2cc(CC(F)(F)F)sc2n1 [Compound 1, (S)-4-methyl-5-((4-((2-(methylamino)-6-(2,2,2-trifluoroethyl)thieno[2,3-d]pyrimidin-4-yl)amino)piperidin-1-yl)methyl)-1-(2-(4-(methylsulfonyl)piperazin-1-yl)propyl)-1H-indole-2-carbonitrile]	impact to Compound 1 stability with certain excipients
converted to Form 5	CNc1nc(NC2CCN(Cc3ccc4c(cc(C#N)n4C[C@H](C)N4CCN(S(C)(=O)=O)CC4)c3C)CC2)c2cc(CC(F)(F)F)sc2n1 [Form 1, (S)-4-methyl-5-((4-((2-(methylamino)-6-(2,2,2-trifluoroethyl)thieno[2,3-d]pyrimidin-4-yl)amino)piperidin-1-yl)methyl)-1-(2-(4-(methylsulfonyl)piperazin-1-yl)propyl)-1H-indole-2-carbonitrile]	
